The record followed here is EP4548907A1 (SkyLab AG, priority 2023, dated 2025).

Holding throughout (design): species or system bovine
Experiment [1] is described as follows: Experiment 3: surface microhardness recovery of demineralised enamel, aspartic acid combined with different calcium sources. The note with it: single treatment 16 hours at 37°C, solutions pH 6 to 6.5 (excluding controls), n=10. As for the experimental part:
Enamel blocks were sectioned from bovine teeth, lapped plane-parallel, and highly polished. The baseline surface microhardness of the enamel samples was measured. The samples were then stratified between the treatment groups based on the baseline surface microhardness values.
The enamel samples were artificially demineralised by immersing them in a demineralisation solution for 60 minutes. Following demineralisation, the surface microhardness of the enamel samples was remeasured.
(§1) The enamel samples in each treatment group were treated with the assigned test products for 16 hours. Following treatment, the surface microhardness of each treated enamel sample was remeasured.
(§2) The percentage of surface microhardness recovery (%SMHR) achieved by the test products was calculated and used to compare the ability of the test products to repair the demineralised enamel samples.
The pH of each solution was adjusted into the pH range of pH 6 to 6.5, using sodium hydroxide or dilute hydrochloric acid (Excluding the positive and negative control). All pH measurements were taken with a calibrated pH electrode (Serial Number: VT1 8048) and an Accumet XI,250 ion meter (Asset Number: UK01200-LAB-15-002).
Approximately 130 enamel blocks (Measuring 4mm x 4mm) were sectioned from bovine incisors and were lapped plano-parallel (both sides) using a Logitech PM5 lapping machine (Asset number: 4F008).
(§3) The enamel surfaces of the samples were machine-polished with 1 micron and 0.3 micron aluminium oxide slurries, using a MetPrep Saphir 550 Polisher (Asset Number: UK01200-1010015-114).
(§4) The surface microhardness of each block was measured at the following time points: • At baseline. • After the demineralisation treatment. • After overnight treatment.
(§5) The surface microhardness of the enamel samples was measured using a Buehler MicroMet 5103 (Asset Number: 4F101) and OmniMet MHT software.
(§6) The Intertek CRS method for measuring the surface microhardness of the samples at each time point has been provided below: • Five Knoop indents • 50 gram load force • 10 second dwell time • X50 objective
(§7) A demineralisation solution was prepared that contained: • ▪ 50 mM Acetic acid • ▪ 2.2 mM Calcium nitrate • ▪ 2.2 mM Potassium phosphate monobasic • ▪ 0.1 ppm Sodium fluoride
The pH of the solution was adjusted to pH 4.5. All pH measurements were taken with a calibrated pH electrode (Serial Number: VT1 8048) and an Accumet XI,250 ion meter (Asset Number: UK01200-LAB-15-002.
The enamel blocks were demineralised by placing the samples into a Sterilin containing 8mL of demineralisation solution per sample. All demineralisation exposures were performed for 60 minutes, in an oven set to 37°C for 60 minutes.
The enamel samples were placed into their assigned test solutions for 16 hours at 37°C, whilst being agitated with a magnetic stirrer. Aquasil Putty was used to attach the 10 enamel blocks in each treatment group to a sample holder with the enamel surfaces of the samples exposed.
Following the removal of the samples from the test product, each enamel block was rinsed with deionised water for 1-2 minutes and sonicated for 10 minutes to remove any loose debris. The enamel samples were then returned to their original containers.
The ability of the test formulations to repair the demineralised enamel samples after a single treatment was assessed by calculating the percentage of surface microhardness recovery values (%SMHR) achieved by each test product.
The formula for calculating the %SMHR values achieved by each treatment is shown below: % SMRH = 100∗[(SMHPost-treatment−SMHPost-demineralisation)/(SMH; Baseline−SMH Post-demineralisation)] [formula]

Experiment [2] in a line: Summary of 3 experiments in comparison with negative and positive controls. The note with it: Water (Negative control) 0 units; for Comparison: units better than fluoride / Comparison: units worser than negative control / Comparison: units better than negative control: scale: Fluoride (Positive control) 100 units. An excerpt:
Table 10. Summary of 3 experiments in comparison with negative and positive controls

A short description of experiment [3]: Experiment 1: remineralization of demineralised enamel, surface microhardness (SMH) after single overnight treatment with calcium sources. The note with it: single overnight immersion 16 hours, 37°C; for Mean (%SMR): percentage surface microhardness recovery. As to the method:
This in vitro study was designed to compare the remineralization efficacy of the test products, following a single, overnight treatment application.
Bovine enamel blocks were sectioned, machine polished and flattened. The baseline surface microhardness of the enamel samples was measured with a Buehler MicroMet 5103 surface microhardness machine.
Each bovine enamel block was demineralised for 1 hour by immersing the sample at 37°C, in a demineralization solution described by Huang et. al. (2009)^1. Following demineralization, the surface microhardness of each enamel sample was remeasured.
All demineralized enamel samples were subjected to an overnight immersion in the assigned test product, with immersion solutions mixed and heated to 37°C during treatment. Following the overnight immersion, the surface microhardness of the enamel samples was remeasured. The study logistics were designed so that each enamel sample was demineralized and then immersed in the assigned treatment on the same day.
The ability of a single, overnight application of test products and controls to repair enamel lesions was assessed by comparing the percentage surface microhardness recoveries and the changes in surface microhardness for the treated samples.
One hundred and thirty enamel blocks, measuring 4 x 4 mm, were cut from bovine incisors and lapped planar-parallel using a Logitech PM5 lapping machine. The enamel surfaces of the samples were machine-polished using a MetPrep Saphir 550 to a final finish of 0.04 microns. One corner of each block was removed in order to ensure correct orientation on the SMH machine.
The baseline surface microhardness of the enamel samples was measured using a calibrated Buehler MicroMet 5103 microhardness indenter and Knoop diamond indenter tip.
The enamel samples were orientated with the abraded corner in the top right. Baseline surface microhardness indents were placed in the centre of the enamel samples. Five Knoop indents were placed in a vertical line at each timepoint (under a load of 50 g for 10 seconds). Surface imperfections were avoided, and outlying indents replaced.
A demineralization solution was prepared according to the following specifications: • ▪ 50 mM Acetic acid • ▪ 2.2 mM Calcium nitrate • ▪ 2.2 mM Potassium phosphate monobasic • ▪ 0.1 ppm Sodium fluoride • ▪ Final pH of the solution was adjusted to 4.5 with sodium hydroxide.
Enamel samples were mounted onto acetate squares using double-sided tape. Enamel samples were immersed in 8 ml demineralization solution per sample and placed into an oven for 1 hour (37 °C). […]
The post-demineralization surface microhardness of the enamel samples was measured using a calibrated Buehler MicroMet 5103 microhardness indenter and Knoop diamond indenter tip. […]

Experiment [4] in a line: Experiment 2: surface microhardness recovery of demineralised enamel, aspartic acid with or without tricalcium phosphate. As to conditions: single treatment 16 hours at 37°C, solutions pH 6-6.5, n=10. As for the experimental part: Enamel blocks were sectioned from bovine teeth, lapped plano-parallel and highly polished. The baseline surface microhardness of the enamel samples was then measured.
The enamel samples were artificially demineralised by immersing them in demineralisation solution for 60 minutes. Following demineralisation, the surface microhardness of the enamel samples was remeasured. The samples were then stratified between the treatment groups based upon the baseline surface microhardness.
as §1, §2
The pH of each solution was adjusted into the pH range shown in Table 2, using sodium hydroxide or dilute hydrochloric acid. All pH measurements were taken with a calibrated pH electrode (Serial Number: 13-620-631) and either an Accumet XI,250 ion meter (Asset Number: UK01200-LAB-15-002), or an Orion 720 ion meter (Asset Number: 4F064).
Approximately 90 enamel blocks (Measuring 4mm x 4mm) were sectioned from bovine incisors and were lapped plano-parallel (both sides) using a Logitech PM5 lapping machine (Asset number: 4F008).
as §3, §4, §5, §6, §7
The pH of the solution was adjusted to pH 4.5. All pH measurements were taken with a calibrated pH electrode (Serial Number: 13-620-631) and either an Accumet XI,250 ion meter (Asset Number: UK01200-LAB-15-002), or an Orion 720 ion meter (Asset Number: 4F064). […]
The ability of the test formulations to repair the demineralised enamel samples after a single treatment was assessed by calculating the percentage of surface microhardness recovery values (%SMHR) achieved by each test product. […]

“And” between values parts separate entries of the source, which are not always exact repeats. Identical values can stand only once.

As to `N[C@@H](CC(=O)O)C(=O)O` [Aspartic acid 0,2% in artificial saliva, Aspartic acid], in experiment [1], the “Mean %SMHR Value” is reported as 16,21%. The “Comparison: units better than fluoride” value in experiment [2] (listed as Aspartic acid 0,2% in artifical saliva) is reported as “for 25 units better than fluoride”.

As for `[F-].[Na+]` [1450 ppm F, Sodium Fluoride, reference compound], the “Mean %SMHR Value” in experiment [1] was found to be 5.15%. The “Mean (%SMR)” value in experiment [3] (n = 10) was 35.5556%; in experiment [3] (n = 10, listed as 1450 ppm Fluoride control), 36%. Further, the “Mean Change in SMH” value in experiment [3] (post-treatment SMH minus demineralisation SMH (Knoop), n = 10) is given as 25.12. Besides, the “mean SMH increase” value in experiment [3] (rounded values in the text) is reported as 25 HK units. In addition, the “Mean %SMHR” value in experiment [4] was 14%; in experiment [4] (listed as 1450 ppm Fluoride (Positive control)), 14.12%. Besides, in experiment [2] (position on the scale), the “Comparison: units” value amounted to 100 units.

As to `N[C@@H](CC(=O)O)C(=O)O` [Aspartic acid 0.4 %, Aspartic acid], the “Mean %SMHR Value” in experiment [1] was -91.74%; in experiment [1] (listed as 0.4% Aspartic acid), -92%. For the same compound, the “Comparison: units worser than negative control” value in experiment [2] (listed as Aspartic acid 0,4% in distilled water) is on record as “for 82 units worser than negative control”.

`N[C@@H](CC(=O)O)C(=O)O` [Aspartic Acid 0.5 %, L-Aspartic Acid]: the “Mean %SMHR” value in experiment [4] was -37% and -37.32%. Besides, the “Comparison: units better than negative control” value in experiment [2] (listed as Aspartic acid 0,5% in distilled water) is listed as “for 90 units better than negative control”.

Consider `N[C@@H](CC(=O)O)C(=O)O` [Aspartic Acid 0.1 %, L-Aspartic Acid], for which the “Mean %SMHR” value in experiment [4] was 3.19%. The “Comparison: units better than negative control” value in experiment [2] was “for 65 units better than negative control”.

Regarding `N[C@@H](CC(=O)O)C(=O)O` [Aspartic acid 0.05 %, Aspartic acid], the “Mean %SMHR Value” in experiment [1] is given as -35.13%. In addition, the “Comparison: units better than negative control” value in experiment [2] (listed as 0,05% Aspartic acid) is on record as “for 17 units better than negative control”.

Turning to `N[C@@H](CC(=O)O)C(=O)O` [Aspartic acid 0,1% in artifical saliva, Aspartic acid], in experiment [2], the “Comparison: units better than fluoride” value is on record as “for 2 units better than fluoride”.

As for `N[C@@H](CC(=O)O)C(=O)O` [Aspartic acid 0.2 % in distilled water, Aspartic acid], the “Mean %SMHR Value” was -87.69% in experiment [1] and -88% in experiment [1] (listed as 0.2% Aspartic acid). The “Comparison: units worser than negative control” value in experiment [2] is “for 70 units worser than negative control”.
